Laboratory results as given in article PMC1084349 (BMC Neuroscience, 2005).
Where a SMILES comes first, the peptide text is derived from it.

Assays:
[1] = test system: hTAS1R2 and tas1r3-hN-rTM; assay: Calcium mobilization (FLIPR), chimera with human N-terminus and rat transmembrane region; assay type: cell-based; settings: asp 15 mM; cyc 30 mM; neo 0.1 mM; sac 10 mM; suc 100 mM; stev 1 mM
Description: The receptor chimeras of Tas1r3 were constructed using recombinant PCR. In the first reactions the N-terminal and the C-terminal part containing the seven transmembrane domains of hTAS1R3 and rTas1r3 were amplified from plasmid DNA using Ultra Pfu Polymerase (Stratagene). For the hTAS1R3 and rTas1r3 N-termini the forward vector-anchored primer (CMV: […]) and a reverse gene specific primer ([…]) were used. The hTAS1R3 and rTas1r3 C-terminal part were amplified with forward gene specific primer ([…]) and a reverse vector-anchored primer ([…]). PCR conditions were: 5 min, 94°C, 24 cycles 1 min 94°C, 0.5 min 64°C, 2 min 72°C; 5 min 72°C. The amplicons were purified using the Highpure PCR Product Purification Kit (Roche) and used as template for the second PCR. To create the chimeric receptor tas1r3-hN-rTM, equimolar amounts (~50 ng) of the hTAS1R3 N-terminus and rTas1r3 transmembrane domains were combined without additional oligonucleotides. PCR conditions were: 5 min 94°C; 15 cycles of 2 min 64°C, 2 min 72°C and 0.5 min 94°C; followed by 5 min 64°C and 10 min 72°C. […] These chimeras were cloned into pcDNA5/FRT.
The cDNAs were transiently transfected into HEK293T cells stably expressing the chimeric G-protein subunit Gα16gust44 [20] using Lipofectamine 2000 (Invitrogen) according to the manufacturer's protocol. 3–4 hours after transfection, DMEM was replaced by low-glucose DMEM supplemented with GlutaMAX and 10% dialyzed FBS (Invitrogen). 22–44 hours later, cells were loaded for 1 hour with the calcium sensitive dye Fluo4-AM (2 μg/ml in DMEM, Molecular Probes). Cells were washed 3x in solution C1 (130 mM NaCl, 5 mM KCl, 10 mM Hepes, 2 mM CaCl2, and 5 mM Glucose, pH 7,4). Calcium mobilization was monitored by an automated fluorometric imaging plate reader (FLIPR, Molecular Devices). Ligands (Sigma-Aldrich, Merck) were dissolved in C1 solution. All data were collected from at least two independent experiments carried out in triplicate. The obtained calcium signals were corrected for the response of mock transfected cells and normalized to the fluorescence of cells prior to the stimulus using ΔF/F=(F-F0)/F0. […]
All sweeteners were used at concentrations which were close to the maximal obtainable signal. (c) Alignment of amino acid sequences of the human, rat, and mouse Tas1r3 transmembrane regions. Color code: white, identical; grey, conservative; dark-grey, similar; black, non-similar. TM, predicted transmembrane domain, indicated by a black bar. Dots indicate the location of the primer used to generate the chimeric rat-human Tas1r3 receptors. Asterisks denote amino acid positions that are identical in rat and mouse but variable between humans and rodents and are located in the extracellular loops or the upper part of the transmembran regions. Boxes indicate the several rTas1r3 mutants m1 – m7, including the amino acid substitutions. m6/1 – m6/3 signified the reconverted amino acid of mutant m6.

rTas1r2-rTas1r3 = target: T1, rTas1r2-rTas1r3 (Rattus norvegicus, UniProt Q923K1+Q9Z0R7); assay: Calcium mobilization (FLIPR) in transfected HEK293T-Gα16gust44 cells, rat sweet receptor; settings: asp 15 mM; cyc 30 mM; neo 0.1 mM; sac 10 mM; suc 100 mM; stev 1 mM
T1 sequence (Q9Z0R7 20-843): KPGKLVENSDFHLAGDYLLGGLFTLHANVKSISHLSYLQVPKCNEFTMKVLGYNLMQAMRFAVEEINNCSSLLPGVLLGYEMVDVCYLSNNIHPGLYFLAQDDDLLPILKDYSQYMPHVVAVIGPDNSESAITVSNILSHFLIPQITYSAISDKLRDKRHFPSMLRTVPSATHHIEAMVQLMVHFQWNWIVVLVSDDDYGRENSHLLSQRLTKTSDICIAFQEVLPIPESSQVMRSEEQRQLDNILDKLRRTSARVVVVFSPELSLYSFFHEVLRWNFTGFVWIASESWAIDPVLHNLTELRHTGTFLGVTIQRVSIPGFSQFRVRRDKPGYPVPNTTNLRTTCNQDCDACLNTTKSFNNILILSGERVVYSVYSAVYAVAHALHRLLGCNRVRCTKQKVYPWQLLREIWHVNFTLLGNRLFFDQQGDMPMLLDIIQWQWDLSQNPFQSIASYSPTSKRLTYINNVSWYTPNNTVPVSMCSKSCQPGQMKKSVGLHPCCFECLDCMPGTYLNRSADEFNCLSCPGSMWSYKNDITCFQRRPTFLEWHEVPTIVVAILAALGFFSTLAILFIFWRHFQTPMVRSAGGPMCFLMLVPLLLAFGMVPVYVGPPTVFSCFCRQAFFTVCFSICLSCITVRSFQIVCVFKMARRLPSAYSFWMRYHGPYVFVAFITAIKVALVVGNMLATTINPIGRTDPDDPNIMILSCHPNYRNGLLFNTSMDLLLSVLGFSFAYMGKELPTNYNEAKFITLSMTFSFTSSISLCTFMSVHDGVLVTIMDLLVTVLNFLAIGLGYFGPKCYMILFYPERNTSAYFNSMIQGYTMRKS
T1 sequence (Q923K1 21-858): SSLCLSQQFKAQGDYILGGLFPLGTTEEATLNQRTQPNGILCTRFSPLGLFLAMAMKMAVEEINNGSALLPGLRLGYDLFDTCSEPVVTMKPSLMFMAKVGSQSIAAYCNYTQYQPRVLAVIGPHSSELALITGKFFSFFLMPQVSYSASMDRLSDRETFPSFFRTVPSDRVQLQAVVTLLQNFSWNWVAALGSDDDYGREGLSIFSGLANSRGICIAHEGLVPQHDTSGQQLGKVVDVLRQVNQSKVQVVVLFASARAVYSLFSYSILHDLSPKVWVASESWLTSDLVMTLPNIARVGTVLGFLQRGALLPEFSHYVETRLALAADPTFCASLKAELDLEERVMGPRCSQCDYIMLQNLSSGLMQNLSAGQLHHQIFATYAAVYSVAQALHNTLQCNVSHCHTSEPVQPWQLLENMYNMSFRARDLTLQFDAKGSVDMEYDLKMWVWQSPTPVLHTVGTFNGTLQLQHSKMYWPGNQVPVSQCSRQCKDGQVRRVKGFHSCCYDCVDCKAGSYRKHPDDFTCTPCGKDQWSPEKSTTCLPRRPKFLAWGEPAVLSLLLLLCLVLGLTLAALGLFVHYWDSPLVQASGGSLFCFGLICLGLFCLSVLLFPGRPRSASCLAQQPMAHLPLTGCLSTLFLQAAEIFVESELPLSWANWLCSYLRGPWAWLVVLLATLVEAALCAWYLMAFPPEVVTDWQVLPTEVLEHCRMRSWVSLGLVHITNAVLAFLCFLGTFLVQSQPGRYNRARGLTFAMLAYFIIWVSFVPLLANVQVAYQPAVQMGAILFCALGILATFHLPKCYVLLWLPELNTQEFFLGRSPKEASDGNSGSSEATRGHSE

| SMILES | activation of receptor (calcium response) [1] | activation of receptor (calcium response) (rTas1r2-rTas1r3) |
| --- | --- | --- |
| COC(=O)[C@H](Cc1ccccc1)NC(=O)[C@@H](N)CC(=O)O [aspartame] (HELM PEPTIDE1{D.F.[CO[*:1]]}$$$$V2.0) | responded | did not activate |
| O=S(=O)(O)NC1CCCCC1 [cyclamate] | not | did not activate |
| C=C1C[C@@]23CC[C@H]4[C@@](C)(CCC[C@@]4(C)C(=O)O[C@@H]4O[C@H](CO)[C@@H](O)[C@H](O)[C@H]4O)[C@@H]2CC[C@]1(O[C@@H]1O[C@H](CO)[C@@H](O)[C@H](O)[C@H]1O[C@@H]1O[C@H](CO)[C@@H](O)[C@H](O)[C@H]1O)C3 [stevioside] | responded | robustly activated |

Further lines, results first:

| activation of receptor (calcium response) [1] | activation of receptor (calcium response) (rTas1r2-rTas1r3) | SMILES |
| --- | --- | --- |
| not | did not activate | COc1ccc(CCC(=O)c2c(O)cc(O[C@@H]3O[C@H](CO)[C@@H](O)[C@H](O)[C@H]3O[C@@H]3O[C@@H](C)[C@H](O)[C@@H](O)[C@H]3O)cc2O)cc1O [neohesperidine dihydrochalcone] |
| responded | robustly activated | OC[C@H]1O[C@@](CO)(O[C@H]2O[C@H](CO)[C@@H](O)[C@H](O)[C@H]2O)[C@@H](O)[C@@H]1O [sucrose] |
